{
  "source": "patent US8653023B1",
  "about": "“Dual beneficial effect of dopamine enhancing and neuroprotective actions of PKC delta inhibitors for treatment of Parkinson's disease” (Iowa State University Research Foundation, Inc., priority 2006, dated 2014)",
  "key": {"PKCδ": {"target": "T1, PKCδ (Mus musculus, UniProt P28867)", "T1 construct": "PKCδ was immunoprecipitated from SN lysates of both rottlerin-mice and vehicle-mice using PKCδ specific polyclonal antibody; from tissue; host or cells: substantia nigra of C57 black mice", "T1 sequence (P28867 whole entry)": "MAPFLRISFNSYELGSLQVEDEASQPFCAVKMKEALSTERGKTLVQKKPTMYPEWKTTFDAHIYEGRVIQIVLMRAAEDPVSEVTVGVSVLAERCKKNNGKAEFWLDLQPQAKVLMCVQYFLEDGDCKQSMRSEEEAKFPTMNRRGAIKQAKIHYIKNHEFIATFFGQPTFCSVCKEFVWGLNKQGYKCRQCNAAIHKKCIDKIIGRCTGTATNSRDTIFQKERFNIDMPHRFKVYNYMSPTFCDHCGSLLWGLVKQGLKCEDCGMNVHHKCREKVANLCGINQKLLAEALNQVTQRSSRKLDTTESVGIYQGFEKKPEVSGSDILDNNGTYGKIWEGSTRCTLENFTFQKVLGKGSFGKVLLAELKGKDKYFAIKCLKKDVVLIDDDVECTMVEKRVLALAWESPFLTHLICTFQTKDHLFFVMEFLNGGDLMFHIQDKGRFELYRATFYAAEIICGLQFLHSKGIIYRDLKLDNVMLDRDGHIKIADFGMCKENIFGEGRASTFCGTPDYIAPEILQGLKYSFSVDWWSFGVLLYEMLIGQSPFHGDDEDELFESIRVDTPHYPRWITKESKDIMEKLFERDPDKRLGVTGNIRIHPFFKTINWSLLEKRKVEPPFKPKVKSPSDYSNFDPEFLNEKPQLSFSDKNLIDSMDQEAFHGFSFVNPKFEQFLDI", "assay": "PKCδ immunoprecipitation kinase assay on substantia nigra of rottlerin-treated mice", "assay_type": "in vivo", "conditions": "5 days", "protocol": "Rottlerin was dissolved in 1% dimethyl sulfoxide (DMSO) and was administered intraperitoneally at various doses. An equal volume of DMSO was given to controls.\nPKCδ enzymatic activity was assayed using an immunoprecipitation kinase assay as described by Reyland et al. (Reyland, Anderson et al. 1999). Briefly, after treatment with rottlerin, substantia nigra brain tissue were washed once with PBS and resuspended in 1 ml of PKC lysis buffer (25 mM HEPES, pH 7.5, 20 mM β-glycerophosphate, 0.1 mM sodium orthovanadate, 0.1% Triton X-100, 0.3 M NaCl, 1.5 mM MgCl2, 0.2 mM EDTA, 0.5 mM DTT, 10 mM NaF, and 4 μg/ml each aprotonin and leupeptin). The lysates were allowed to sit on ice for 30 min and centrifuged at 13,000×g for 5 min, and the supernatants were collected as cytosolic fraction. Protein concentration was determined using a Bradford assay. Cytosolic protein (0.25-0.5 mg) was immunoprecipitated overnight at 4° C. using 2 μg of anti-PKCδ antibody. The immunoprecipitates were then incubated with Protein-A Sepharose (Sigma) for 1 hr at 4° C. The protein A bound antigen-antibody complexes were then washed three times with PKC lysis buffer, three times with 2× kinase buffer (40 mM Tris, pH 7.4, 20 mM MgCl2, 20 μM ATP, and 2.5 mM CaCl2), and resuspended in 20 μl of 2× kinase buffer. Reaction was started by adding 20 μl of reaction buffer containing 0.4 mg Histone H1, 50 μg/ml phosphatidylserine, 4.1 μM dioleoylglycerol, and 5 μCi of [γ-^32P] ATP (3000 Ci/mM) to the immunoprecipitated samples and incubated for 10 min at 30° C. SDS gel-loading buffer (2×) was added to terminate the reaction, the samples were boiled for 5 min, and the products were separated on a 12.5% SDS-PAGE gel. The H1 phosphorylated bands were detected using a Personal Molecular Imager (FX model; Bio-Rad), and quantification was done using Quantity One 4.2.0 software."}, "[1]": {"test_system": "tyrosine hydroxylase (TH)", "assay": "TH phosphorylation in PC12 cells (immunoblot, immunofluorescence)", "assay_type": "cell-based", "conditions": "3 μM rottlerin for 3 hr", "procedure": "(§1) PC12 cells, differentiated N27 dopaminergic cells and primary mesencephalic neurons were exposed to 1-10 μM rottlerin for the duration of the experiment. DMSO (0.01%) was used as vehicle control. PKCδ-DN- and Lac Z-expressing N27 cells were only treated with 0.01% DMSO. […] Untreated or vehicle treated cells were used as control samples.\n(§2) Cell and brain lysates containing equal amounts of protein were loaded in each lane and separated on a 10-12% SDS-PAGE gel as described previously (Kaul et al., 2003). After the separation, proteins were transferred to nitrocellulose membrane, and nonspecific binding sites were blocked by treating with 5% nonfat dry milk powder. The membranes were then treated with primary antibodies directed against PKCδ (rabbit polyclonal or mouse monoclonal, 1:2000 dilution), TH (rabbit polyclonal or mouse monoclonal, 1:1000), phospho TH-ser40 (rabbit polyclonal, 1:1000), phospho TH-ser31 TH (rabbit polyclonal, 1:1000), or PP2A (mouse monoclonal, 1:1000). The primary antibody treatments were followed by treatment with secondary HRP-conjugated anti-rabbit or anti-mouse IgG (1:2000) for 1 hr at RT. Secondary antibody-bound proteins were detected using Amersham's ECL chemiluminescence kit. To confirm equal protein loading, blots were reprobed with a β-actin antibody (1:5000 dilution). Western blot images were captured with a Kodak 2000 MM imaging system and data were analyzed using 1D Kodak imaging analysis software.\n(§3) Immunostaining of PKCδ, TH, Ser40 P-TH and Ser31 P-TH was performed in PC12, N27 and primary mesencephalic neurons. Cells were grown on poly-L-Lysine-coated glass cover slips. After treatment, the cells were fixed with 4% paraformaldehyde and processed for immunohistochemical staining. First, non-specific sites were blocked with 5% normal goat serum containing 0.4% BSA and 0.2% Triton-X 100 in PBS for 20 min. Cells were then incubated with antibodies directed against PKCδ (1:500 dilution), TH (1:500 dilution), and P-THSer40 (1:500 dilution) overnight at 4° C. followed by incubation with either Alexa 488-conjugated (green, 1:1000) or Cy3-conjugated (red, 1:1000) secondary antibody for 1 hr at RT. Secondary antibody treatments were followed by incubation with Hoechst 33342 (10 μg/ml) for 3 min at room temperature to stain the nucleus. Then the coverslips containing stained cells were washed with PBS, mounted on a slide, and viewed under a Nikon inverted fluorescence microscope (Model TE-2000U); images were captured with a SPOT digital camera (Diagnostic Instruments, Sterling Heights, Mich.)."}, "N27 cells": {"test_system": "N27 cells", "assay": "Cellular DA and DOPAC levels in N27 cells (HPLC-EC)", "assay_type": "cell-based, rat", "conditions": "N27 cells; rottlerin vs vehicle, PKCδ-DN vs LacZ", "procedure": "as §1\nDA and DOPAC levels in PC12, N27 cells and in brain striatal tissues were determined by high-performance liquid chromatography with electrochemical detection (HPLC-EC); samples were prepared as described previously (Kitazawa et al., 2001). The DA and DOPAC levels were measured as pg/mg protein and expressed as percent of control."}, "[2]": {"test_system": "tyrosine hydroxylase (TH)", "assay": "TH phosphorylation in N27 cells (Western blot, immunofluorescence)", "assay_type": "cell-based, rat", "conditions": "N27 cells", "procedure": "as §1, §2, §3"}, "CAM kinase III": {"target": "CAM kinase III (Homo sapiens, UniProt O00418)", "sequence (O00418 whole entry)": "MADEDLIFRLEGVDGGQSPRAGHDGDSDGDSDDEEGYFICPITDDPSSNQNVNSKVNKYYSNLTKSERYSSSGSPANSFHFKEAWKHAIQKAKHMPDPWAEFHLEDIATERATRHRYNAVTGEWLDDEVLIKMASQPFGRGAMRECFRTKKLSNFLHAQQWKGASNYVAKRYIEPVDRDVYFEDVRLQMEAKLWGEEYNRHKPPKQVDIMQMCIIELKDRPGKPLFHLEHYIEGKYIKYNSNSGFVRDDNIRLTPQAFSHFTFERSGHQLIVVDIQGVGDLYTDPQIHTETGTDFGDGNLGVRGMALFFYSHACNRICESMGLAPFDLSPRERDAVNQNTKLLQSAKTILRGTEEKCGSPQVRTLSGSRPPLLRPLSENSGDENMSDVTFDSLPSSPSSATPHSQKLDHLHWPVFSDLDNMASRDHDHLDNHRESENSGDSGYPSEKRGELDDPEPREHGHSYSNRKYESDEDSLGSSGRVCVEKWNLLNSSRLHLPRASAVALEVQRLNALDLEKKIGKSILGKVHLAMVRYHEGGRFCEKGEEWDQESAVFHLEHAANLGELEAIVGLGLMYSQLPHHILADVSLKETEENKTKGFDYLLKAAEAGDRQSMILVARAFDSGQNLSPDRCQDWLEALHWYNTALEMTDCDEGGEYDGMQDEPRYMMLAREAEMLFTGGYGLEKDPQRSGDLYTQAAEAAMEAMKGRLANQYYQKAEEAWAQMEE", "conditions": "cited from earlier work"}, "dopaminergic N27 cells": {"test_system": "dopaminergic N27 cells", "conditions": "cited from earlier work"}, "cells": {"test_system": "cells", "conditions": "cited from earlier work"}},
  "data": [
    {"smiles": "CC(=O)c1c(O)c(C)c(O)c(Cc2c(O)c3c(c(C(=O)/C=C/c4ccccc4)c2O)OC(C)(C)C=C3)c1O", "note": "[rottlerin]", "values": [
      {"measurement": "reduction in the kinase activity in SN", "setting": "PKCδ; i.p. injection with 3 mg rottlerin", "result": "more than 30%"},
      {"measurement": "reduction in the kinase activity in SN", "setting": "PKCδ; i.p. injection with 7 mg rottlerin", "result": "more than 30%"},
      {"measurement": "decrease in protein kinase activity in SN (phosphorylated histone H1 bands)", "setting": "PKCδ; orally treated with 10 mg rottlerin", "result": 40, "unit": "%"},
      {"measurement": "decrease in protein kinase activity in SN (phosphorylated histone H1 bands)", "setting": "PKCδ; orally treated with 20 mg rottlerin", "result": 50, "unit": "%"},
      {"measurement": "TH-ser40 phosphorylation, densitometry of 60 kDa band, increase versus vehicle", "setting": "[1]", "result": 3, "unit": "fold"},
      {"measurement": "THser31 phosphorylation level", "setting": "[1]", "result": "unaltered"},
      {"measurement": "level of total TH", "setting": "[1]", "result": "unaltered"},
      {"measurement": "increase in TH-ser40 stained cells compared to DMSO-treated cells", "setting": "[1]; immunofluorescence cell count", "result": 333, "unit": "%"},
      {"measurement": "DA level", "setting": "N27 cells", "result": "2748±208", "unit": "pg/μg protein"},
      {"measurement": "DOPAC levels", "setting": "N27 cells", "result": "2564±848.19", "unit": "pg/μg protein"},
      {"measurement": "increase in DA level", "setting": "N27 cells", "result": 4, "unit": "fold"},
      {"measurement": "increase in DOPAC levels", "setting": "N27 cells", "result": 4, "unit": "fold"},
      {"measurement": "level of total TH", "setting": "[2]", "result": "unaltered"},
      {"measurement": "inhibiting concentration", "setting": "CAM kinase III", "result": "3 to 6", "unit": "µM"},
      {"measurement": "H2O2 and MPP+-induced apoptotic cell death (genistein: also PKCδ cleavage, kinase activation)", "setting": "dopaminergic N27 cells", "result": "dramatically inhibited"},
      {"measurement": "asbestos-induced apoptosis", "setting": "cells", "result": "inhibited"}
    ]}
  ]
}
